Assay results as given in PubChem BioAssay (NCI).
Where “and” joins values, the source holds several entries; their conditions need not be identical. Equal values may be shown once.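 1) Cells in 96-well plates. 2) Compound, 48 h, 5 concentrations. 3) Linear interpolation between surrounding doses. 4) Unreached endpoint = highest concentration. Abbreviation: GI50, concentration required for 50% inhibition of growth. At the TGI there is no net growth.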

Tests used:
Assay in all cases: NCI anticancer screen, dose series, 48 h
SF-268 CNS = test system: SF-268 CNS
A549 NSCLC = test system: A549 NSCLC
UO-31 renal = test system: UO-31 renal
RPMI-8226 leukemia = test system: RPMI-8226 leukemia
ACHN renal = test system: ACHN renal
SW-620 colon = test system: SW-620 colon
HL-60(TB) leukemia = test system: HL-60(TB) leukemia
RXF 393 renal = test system: RXF 393 renal

SMILES | GI50 (SF-268 CNS) [µM] | TGI (SF-268 CNS) [µM] | GI50 (A549 NSCLC) [µM] | TGI (A549 NSCLC) [µM] | GI50 (UO-31 renal) [nM] | TGI (UO-31 renal) [µM] | GI50 (RPMI-8226 leukemia) | TGI (RPMI-8226 leukemia) | GI50 (ACHN renal) [µM] | TGI (ACHN renal) [µM] | GI50 (SW-620 colon) [nM] | TGI (SW-620 colon) [µM] | GI50 (HL-60(TB) leukemia) [nM] | TGI (HL-60(TB) leukemia) [µM] | TGI (RXF 393 renal) [µM] | GI50 (RXF 393 renal) [nM]
COc1cc(-n2cc(-c3ccccc3)[nH]c2=O)cc(OC)c1OC | 28.5 | 89.7 | 38.9 | > 100 | 37900 | > 100 | > 100000 nM | > 100 µM | 45.5 | > 100 | > 100000 | > 100 | 60300 | > 100 |  | 
C=C1C(=O)OC2C1C(OC(=O)/C(C)=C/C)CC(O)(CCl)C1C(O)C=C(C)C21O (stereo unspecified) |  | > 69.5 |  | > 63.7 |  | 33.9 |  | 30.6 µM |  | 18.2 |  | 15.7 |  | 18 | 18.3 | 
O=C1/C=C/[C@@H](O)[C@@H]2C[C@@H](O)C[C@H]2/C=C/CCC[C@H](CCc2ccc3ncccc3c2)O1 | 0.322 | > 100 | 0.308 | > 57.9 | 299 | 20 | 243 nM | 5.89 µM | 0.388 | > 29.7 | 265 | 0.768 | 268 | 0.691 | 0.419 | 94.5
O=C1Nc2cc(-c3cccc(O)c3)ccc2/C1=C/c1ccc[nH]1 | 1.76 | 8.04 | 3.05 | 11.8 | 359 | 3.78 | 588 nM | 5.83 µM | 0.515 | 5.5 | 1170 | 8.27 | 1510 | 7.05 | 2.73 | 476
CCCCCCCCCCCCCCCCCCNCc1ccc(Cl)cc1 | 3.82 | 18.2 | 2.52 | 5.65 | 1600 | 3.45 | 2240 nM | 5.71 µM | 2.15 | 5.54 | 1870 | 4.03 | 1550 | 3.94 | 15.8 | 3390
Nc1ccccc1C#C/C=C\C#CC#C/C=C\C#Cc1ccccc1N | 5.93 | 26.2 | 2.77 | 16.4 | 1940 | 16.8 | 515 nM | 5.82 µM | 5.38 | 40.4 | 7540 | 30.7 |  |  | 6.22 | 2180
C/C=C/C/C=C/[C@H](C)C[C@H](O)[C@@H]1C[C@@H]2O[C@H]2/C=C/[C@@H]2OC(C)(C)O[C@H]2/C=C/C[C@H](C)CC(=O)O1 | 10.4 | > 100 | 8.79 | > 100 | 3010 | 18.7 | 3160 nM | 37 µM | 6.05 | > 100 | 22700 | > 100 | 5600 | 30.9 | > 100 | 30400
C=C1c2ccccc2C(=O)c2c1c1c(C(=O)OC)c(OC(=O)OCc3ccc([N+](=O)[O-])cc3)ccc1n2Cc1ccccc1 | 46.4 | > 100 | 16.5 | > 100 | 8280 | 45.4 | 2300 nM | 13.1 µM | 55.9 | > 100 | 5630 | > 100 |  |  | > 100 | 3100
N#CC1=C(N)NC(=S)NC1c1ccc(-c2ccc(-c3nc4ccccc4o3)cc2)s1 (stereo unspecified) | 10.7 | 26.5 | 9 | 20.2 | 7890 | 17 | 16000 nM | > 50 µM | 6.54 | 12.9 | 21300 | > 50 | 24100 | > 50 |  | 
O=C(NCCc1ccccc1)Nc1ccc2cc3ccc(NC(=O)NCCc4ccccc4)cc3nc2c1 |  |  | 3.16 | 14.7 | > 100000 | > 100 | 2240 nM | 6.72 µM | 20.9 | > 100 | 346 | 1.31 | 266 | 0.774 | 6.49 | 1320
Nc1ncnc2c1ncn2C1OC(COS(N)(=O)=O)C(O)C1O (stereo unspecified) |  |  |  |  |  |  | 2.87 nM and 28.3 nM | 0.265 µM and 0.0661 µM |  |  |  |  | < 1 | 0.00378 |  | 
CN(C)C(=O)OCc1nc2c(N3CCOCC3)nc(-c3ccccc3)nc2n1C | 1.39 | 2.77 | 1.56 | 3.75 | 373 | 1.55 | 189 nM | 0.675 µM | 0.415 | 1.43 | 305 | 0.899 | 375 | 1.96 | 1.68 | 566
CNC(=O)c1cc(Oc2cccc3nc(NC(=O)Nc4cc(C(F)(F)F)cc(C(F)(F)F)c4)ccc23)ccn1 | 4.93 | 39.4 | 4.54 | > 100 | 4910 | 40.5 |  |  | 3.8 | 16.4 | 16900 | > 100 | 23400 | 77.2 | 9.48 | 3030
COc1ccc(/C(C)=N/NC(=O)CSc2nc3ccccc3c(=O)n2CCc2ccc(S(N)(=O)=O)cc2)cc1 |  |  | 2.1 | 4 | 1560 | 3.28 | 2020 nM | 10.6 µM | 1.73 | 3.27 | 2280 | 5.01 | 16600 | > 100 | 3.29 | 1720
CC(C)(C)c1cc(C(=O)Nc2ccc(C(=O)NCCN)cc2)cc(C(C)(C)C)c1 | 2.03 | 5.05 | 3.15 | 9.41 | 4680 | 22 |  |  | 4.45 | 18.7 | 1840 | 3.65 | 1900 | 3.87 | 3.16 | 1680
[N-]=[N+]=NCCCn1c2c(c3ccc([N+](=O)[O-])cc3c1=O)C(=O)c1cc3c(cc1-2)OCO3 |  |  | < 0.0388 | 2.87 | < 33.5 | 2.28 |  |  | < 0.0161 | 0.459 | < 28.5 | > 100 | < 28.1 | > 100 | 40.3 | 390
